According to patent US10208067B2, “Compounds for treating spinal muscular atrophy” (Hoffmann-La Roche Inc., priority 2015, dated 2019):

Experiments:
[1] = tested on: SMN protein in SMA patient fibroblast cells (GM03813); experiment: SMN protein assay (HTRF) in cultured cells; format: cell-based; conditions: Homo sapiens, SMA Type 1 patient fibroblasts, 48 hours; for EC (1.5-fold): concentration producing 1.5 times SMN protein vs vehicle, read-out: EC1.5x SMN protein; for maximal fold induction: relative to vehicle control, read-out: max. fold increase of SMN protein
Method: The SMN HTRF (homogeneous time resolved fluorescence) assay is used to quantify the level of SMN protein in SMA patient fibroblast cells treated with test compounds. Materials used and respective sources are listed below in Table 4.
Cells are thawed and cultured in DMEM-10% FBS for 72 hours. Cells are trypsinized, counted and re-suspended to a concentration of 25,000 cells/mL in DMEM-10% FBS. The cell suspensions are plated at 5,000 cells per well in a 96 well microtiter plate and incubated for […]. […] 1 μL of test compound solution is transferred to cell-containing wells and cells are incubated for 48 hours in a cell culture incubator (37° C., 5% CO2, 100% relative humidity). Triplicate samples are set up for each test compound concentration. After 48 hours, the supernatant is removed from the wells and 25 μL of the RIPA lysis buffer, containing protease inhibitors, is added to the wells and incubated with shaking at room temperature for 1 hour. 25 μL of the diluent is added and then 35 μL of the resulting lysate is transferred to a 384-well plate, where each well contains 5 μL of the antibody solution (1:100 dilution of anti-SMN d2 and anti-SMN cryptate in SMN reconstitution buffer). The plate is centrifuged for 1 minute to bring the solution to the bottom of the wells, then incubated overnight at room temperature. Fluorescence for each well of the plate at 665 nm and 620 nm is measured on an EnVision multilabel plate reader (Perkin-Elmer).
The normalized fluorescence signal is calculated for each sample, Blank and vehicle control well by dividing the signal at 665 nm by the signal at 620 nm. Normalizing the signal accounts for possible fluorescence quenching due to the matrix effect of the lysate. The ΔF value (a measurement of SMN protein abundance as a percent value) for each sample well is calculated by subtracting the normalized average fluorescence for the Blank control wells from the normalized fluorescence for each sample well, then dividing this difference by the normalized average fluorescence for the Blank control wells and multiplying the resulting value by 100. The ΔF value for each sample well represents the SMN protein abundance from test compound-treated samples. The ΔF value for each sample well is divided by the ΔF value for the vehicle control wells to calculate the fold increase in SMN protein abundance relative to the vehicle control. Table 5 provides EC1-5× concentrations for SMN protein expression that was obtained from the 7-point concentration data generated according to the above procedure for particular compounds of the present invention.
Table 6 provides the maximum fold increase of SMN protein that was obtained from the 7-point concentration data generated according to the above procedure for particular compounds of the present invention

[2] = tested on: full length SMN2 minigene mRNA (HEK293H cells stably transfected with SMN2-A minigene); experiment: RT-qPCR assay for SMN2 minigene pre-mRNA splicing in cultured cells; format: cell-based; conditions: Homo sapiens, HEK293-H, Table 3 (title: production of full length SMN2 minigene mRNA), 24 hours, read-out: EC1.5x SMN protein

Structure (SMILES) | EC (1.5-fold) [1] | maximal fold induction [1] | EC (1.5-fold) [2]
Cc1nc2ncc(-c3cc(=O)n4cc(N5CCN[C@H](C)C5)ccc4n3)cn2n1 [Example 24, 7-[(3R)-3-methylpiperazin-1-yl]-2-(2-methyl-[1,2,4]triazolo[1,5-a]pyrimidin-6-yl)pyrido[1,2-a]pyrimidin-4-one] | 0.121 µM | 1.87 | 0.0348 µM
Cc1nc2ccc(-c3cc(=O)n4cc(N5CCCN(C)CC5)cc(C)c4n3)nn2n1 [Example 25, 9-methyl-7-(4-methyl-1,4-diazepan-1-yl)-2-(2-methyl-[1,2,4]triazolo[1,5-b]pyridazin-6-yl)pyrido[1,2-a]pyrimidin-4-one] | 0.226 µM | 1.89 | 0.0103 µM
Cc1nc2ccc(-c3cc(=O)n4cc(N5C[C@@H](C)N[C@@H](C)C5)cc(C)c4n3)nn2n1 [Example 26, 7-[(3R,5S)-3,5-dimethylpiperazin-1-yl]-9-methyl-2-(2-methyl-[1,2,4]triazolo[1,5-b]pyridazin-6-yl)pyrido[1,2-a]pyrimidin-4-one] | 0.225 µM | 1.88 | 0.0483 µM
Cc1nc2ccc(-c3cc(=O)n4cc(N5CCN(C)CC5)cc(C)c4n3)nn2n1 [Example 27, 9-methyl-7-(4-methylpiperazin-1-yl)-2-(2-methyl-[1,2,4]triazolo[1,5-b]pyridazin-6-yl)pyrido[1,2-a]pyrimidin-4-one] | 0.0347 µM | 1.74 | 0.014 µM
Cc1nc2ccc(-c3cc(=O)n4cc(N5CCNC(C)(C)C5)cc(C)c4n3)nn2n1 [Example 28, 7-(3,3-dimethylpiperazin-1-yl)-9-methyl-2-(2-methyl-[1,2,4]triazolo[1,5-b]pyridazin-6-yl)pyrido[1,2-a]pyrimidin-4-one] | 0.0353 µM | 1.79 | 0.0096 µM
Cc1nc2ccc(-c3cc(=O)n4cc(N5C[C@H]6CN(C)C[C@H]6C5)cc(C)c4n3)nn2n1 [Example 29, 7-[(3aS,6aR)-2-methyl-1,3,3a,4,6,6a-hexahydropyrrolo[3,4-c]pyrrol-5-yl]-9-methyl-2-(2-methyl-[1,2,4]triazolo[1,5-b]pyridazin-6-yl)pyrido[1,2-a]pyrimidin-4-one] | 0.0077 µM | 1.77 | 0.0008 µM
Cc1nc2ccc(-c3cc(=O)n4cc(N5CC[C@@H](N(C)C)C5)cc(C)c4n3)nn2n1 [Example 30, 7-[(3R)-3-(dimethylamino)pyrrolidin-1-yl]-9-methyl-2-(2-methyl-[1,2,4]triazolo[1,5-b]pyridazin-6-yl)pyrido[1,2-a]pyrimidin-4-one] | 0.0279 µM | 1.98 | 0.0065 µM
Cc1nc2ccc(-c3cc(=O)n4cc(N5CCN(C6COC6)CC5)cc(C)c4n3)nn2n1 [Example 31, 9-methyl-7-[4-(oxetan-3-yl)piperazin-1-yl]-2-(2-methyl-[1,2,4]triazolo[1,5-b]pyridazin-6-yl)pyrido[1,2-a]pyrimidin-4-one] | 1.31 µM | 1.75 | 0.13 µM
CCN1CCN(c2cc(C)c3nc(-c4ccc5nc(C)nn5n4)cc(=O)n3c2)CC1 [Example 32, 7-(4-ethylpiperazin-1-yl)-9-methyl-2-(2-methyl-[1,2,4]triazolo[1,5-b]pyridazin-6-yl)pyrido[1,2-a]pyrimidin-4-one] | 0.0725 µM | 1.97 | 0.0038 µM
Cc1nc2ccc(-c3cc(=O)n4cc(N5CC6CN(C)CC6C5)ccc4n3)nn2n1 (stereo not drawn) [Example 33, 7-(2-methyl-1,3,3a,4,6,6a-hexahydropyrrolo[3,4-c]pyrrol-5-yl)-2-(2-methyl-[1,2,4]triazolo[1,5-b]pyridazin-6-yl)pyrido[1,2-a]pyrimidin-4-one] | 0.0151 µM | 1.67 | 0.0038 µM
